Experimental data reported in PubChem BioAssay (NCI).
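Cultured in 96-well plates, cells were exposed to test compound for 48 hours across five concentrations. TGI denotes the concentration required for complete inhibition of growth.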

Tests used:
Assay in all cases: NCI-60 cell line screen, 48 h
786-0 renal = system: 786-0 renal
A549 NSCLC = system: A549 NSCLC
CAKI-1 renal = system: CAKI-1 renal
CCRF-CEM leukemia = system: CCRF-CEM leukemia
COLO 205 colon = system: COLO 205 colon
DLD-1 colon = system: DLD-1 colon
DMS 114 small cell lung = system: DMS 114 small cell lung
DMS 273 small cell lung = system: DMS 273 small cell lung
EKVX NSCLC = system: EKVX NSCLC
HCC-2998 colon = system: HCC-2998 colon
HCT-116 colon = system: HCT-116 colon
HCT-15 colon = system: HCT-15 colon
HL-60(TB) leukemia = system: HL-60(TB) leukemia
HOP-18 NSCLC = system: HOP-18 NSCLC
HOP-62 NSCLC = system: HOP-62 NSCLC
HOP-92 NSCLC = system: HOP-92 NSCLC
HT29 colon = system: HT29 colon
IGROV1 ovarian = system: IGROV1 ovarian
K-562 leukemia = system: K-562 leukemia
KM12 colon = system: KM12 colon
KM20L2 colon = system: KM20L2 colon
LOX IMVI melanoma = system: LOX IMVI melanoma
M14 melanoma = system: M14 melanoma
M19-MEL melanoma = system: M19-MEL melanoma
MALME-3M melanoma = system: MALME-3M melanoma
MOLT-4 leukemia = system: MOLT-4 leukemia
NCI-H226 lung = system: NCI-H226 lung
NCI-H23 lung = system: NCI-H23 lung
NCI-H522 lung = system: NCI-H522 lung
OVCAR-3 ovarian = system: OVCAR-3 ovarian
OVCAR-4 ovarian = system: OVCAR-4 ovarian
OVCAR-5 ovarian = system: OVCAR-5 ovarian
OVCAR-8 ovarian = system: OVCAR-8 ovarian
RPMI-8226 leukemia = system: RPMI-8226 leukemia
RXF 393 renal = system: RXF 393 renal
SF-268 CNS = system: SF-268 CNS
SF-295 CNS = system: SF-295 CNS
SF-539 CNS = system: SF-539 CNS
SK-MEL-2 melanoma = system: SK-MEL-2 melanoma
SK-MEL-28 melanoma = system: SK-MEL-28 melanoma
SK-MEL-5 melanoma = system: SK-MEL-5 melanoma
SK-OV-3 ovarian = system: SK-OV-3 ovarian
SN12C renal = system: SN12C renal
SNB-19 CNS = system: SNB-19 CNS
SNB-75 CNS = system: SNB-75 CNS
SNB-78 CNS = system: SNB-78 CNS
SR leukemia = system: SR leukemia
SW-620 colon = system: SW-620 colon
TK-10 renal = system: TK-10 renal
U251 CNS = system: U251 CNS
UACC-257 melanoma = system: UACC-257 melanoma
UACC-62 melanoma = system: UACC-62 melanoma
UO-31 renal = system: UO-31 renal
XF 498 CNS = system: XF 498 CNS
A498 renal = system: A498 renal
ACHN renal = system: ACHN renal
NCI-H460 lung = system: NCI-H460 lung
LXFL 529 NSCLC = system: LXFL 529 NSCLC

## C1OC1C1CO1 (stereo unspecified)
786-0 renal
  TGI: > 100 µM
A549 NSCLC
  TGI: > 100 µM
CAKI-1 renal
  TGI: > 100 µM
CCRF-CEM leukemia
  TGI: > 100 µM
COLO 205 colon
  TGI: > 100 µM
DLD-1 colon
  TGI: > 100 µM
DMS 114 small cell lung
  TGI: > 100 µM
DMS 273 small cell lung
  TGI: > 100 µM
EKVX NSCLC
  TGI: > 100 µM
HCC-2998 colon
  TGI: > 100 µM
HCT-116 colon
  TGI: > 100 µM
HCT-15 colon
  TGI: > 100 µM
HL-60(TB) leukemia
  TGI: 64.2 µM
HOP-18 NSCLC
  TGI: > 100 µM
HOP-62 NSCLC
  TGI: > 100 µM
HOP-92 NSCLC
  TGI: > 100 µM
HT29 colon
  TGI: > 100 µM
IGROV1 ovarian
  TGI: > 100 µM
K-562 leukemia
  TGI: > 100 µM
KM12 colon
  TGI: > 100 µM
KM20L2 colon
  TGI: > 100 µM
LOX IMVI melanoma
  TGI: > 100 µM
M14 melanoma
  TGI: > 100 µM
M19-MEL melanoma
  TGI: > 100 µM
MALME-3M melanoma
  TGI: > 100 µM
MOLT-4 leukemia
  TGI: > 100 µM
NCI-H226 lung
  TGI: > 100 µM
NCI-H23 lung
  TGI: > 100 µM
NCI-H522 lung
  TGI: > 100 µM
OVCAR-3 ovarian
  TGI: > 100 µM
OVCAR-4 ovarian
  TGI: > 100 µM
OVCAR-5 ovarian
  TGI: > 100 µM
OVCAR-8 ovarian
  TGI: > 100 µM
RPMI-8226 leukemia
  TGI: > 100 µM
RXF 393 renal
  TGI: > 100 µM
SF-268 CNS
  TGI: > 100 µM
SF-295 CNS
  TGI: > 100 µM
SF-539 CNS
  TGI: > 100 µM
SK-MEL-2 melanoma
  TGI: > 100 µM
SK-MEL-28 melanoma
  TGI: > 100 µM
SK-MEL-5 melanoma
  TGI: > 100 µM
SK-OV-3 ovarian
  TGI: > 100 µM
SN12C renal
  TGI: > 100 µM
SNB-19 CNS
  TGI: > 100 µM
SNB-75 CNS
  TGI: > 100 µM
SNB-78 CNS
  TGI: > 100 µM
SR leukemia
  TGI: > 100 µM
SW-620 colon
  TGI: > 100 µM
TK-10 renal
  TGI: > 100 µM
U251 CNS
  TGI: > 100 µM
UACC-257 melanoma
  TGI: > 100 µM
UACC-62 melanoma
  TGI: > 100 µM
UO-31 renal
  TGI: > 100 µM
XF 498 CNS
  TGI: > 100 µM

## COc1ccc(C(=O)NCCC2=CCCCC2)cc1
786-0 renal
  TGI: > 100 µM
A498 renal
  TGI: > 100 µM
A549 NSCLC
  TGI: > 100 µM
ACHN renal
  TGI: > 100 µM
CAKI-1 renal
  TGI: > 100 µM
CCRF-CEM leukemia
  TGI: > 100 µM
COLO 205 colon
  TGI: > 100 µM
DLD-1 colon
  TGI: > 100 µM
DMS 114 small cell lung
  TGI: > 100 µM
DMS 273 small cell lung
  TGI: > 100 µM
EKVX NSCLC
  TGI: > 100 µM
HCT-116 colon
  TGI: > 100 µM
HCT-15 colon
  TGI: > 100 µM
HOP-18 NSCLC
  TGI: > 100 µM
HOP-62 NSCLC
  TGI: > 100 µM
HOP-92 NSCLC
  TGI: > 100 µM
HT29 colon
  TGI: > 100 µM
IGROV1 ovarian
  TGI: > 100 µM
K-562 leukemia
  TGI: > 100 µM
KM12 colon
  TGI: > 100 µM
KM20L2 colon
  TGI: > 100 µM
LOX IMVI melanoma
  TGI: > 100 µM
M19-MEL melanoma
  TGI: > 100 µM
MALME-3M melanoma
  TGI: > 100 µM
NCI-H23 lung
  TGI: > 100 µM
NCI-H460 lung
  TGI: > 100 µM
OVCAR-3 ovarian
  TGI: > 100 µM
OVCAR-4 ovarian
  TGI: > 100 µM
OVCAR-5 ovarian
  TGI: > 100 µM
OVCAR-8 ovarian
  TGI: > 100 µM
RPMI-8226 leukemia
  TGI: > 100 µM
RXF 393 renal
  TGI: > 100 µM
SF-268 CNS
  TGI: > 100 µM
SF-295 CNS
  TGI: > 100 µM
SF-539 CNS
  TGI: > 100 µM
SK-MEL-2 melanoma
  TGI: > 100 µM
SK-MEL-28 melanoma
  TGI: > 100 µM
SK-MEL-5 melanoma
  TGI: > 100 µM
SN12C renal
  TGI: > 100 µM
SNB-19 CNS
  TGI: > 100 µM
SNB-75 CNS
  TGI: > 100 µM
SNB-78 CNS
  TGI: > 100 µM
SR leukemia
  TGI: > 100 µM
SW-620 colon
  TGI: > 100 µM
TK-10 renal
  TGI: > 100 µM
U251 CNS
  TGI: > 100 µM
UACC-257 melanoma
  TGI: > 100 µM
UACC-62 melanoma
  TGI: > 100 µM
XF 498 CNS
  TGI: > 100 µM

## O=C1Nc2ccccc2C12CCCC2
786-0 renal
  TGI: > 100 µM
A498 renal
  TGI: > 100 µM
A549 NSCLC
  TGI: > 100 µM
ACHN renal
  TGI: > 100 µM
CAKI-1 renal
  TGI: > 100 µM
CCRF-CEM leukemia
  TGI: > 100 µM
COLO 205 colon
  TGI: > 100 µM
DLD-1 colon
  TGI: > 100 µM
DMS 114 small cell lung
  TGI: > 100 µM
DMS 273 small cell lung
  TGI: > 100 µM
EKVX NSCLC
  TGI: > 100 µM
HCC-2998 colon
  TGI: > 100 µM
HCT-116 colon
  TGI: > 100 µM
HCT-15 colon
  TGI: > 100 µM
HL-60(TB) leukemia
  TGI: > 100 µM
HOP-18 NSCLC
  TGI: > 100 µM
HOP-62 NSCLC
  TGI: > 100 µM
HT29 colon
  TGI: > 100 µM
IGROV1 ovarian
  TGI: > 100 µM
K-562 leukemia
  TGI: > 100 µM
KM12 colon
  TGI: > 100 µM
KM20L2 colon
  TGI: > 100 µM
LXFL 529 NSCLC
  TGI: > 100 µM
M14 melanoma
  TGI: > 100 µM
M19-MEL melanoma
  TGI: > 100 µM
MALME-3M melanoma
  TGI: > 100 µM
MOLT-4 leukemia
  TGI: > 100 µM
NCI-H23 lung
  TGI: > 100 µM
NCI-H460 lung
  TGI: > 100 µM
NCI-H522 lung
  TGI: > 100 µM
OVCAR-3 ovarian
  TGI: > 100 µM
OVCAR-4 ovarian
  TGI: > 100 µM
OVCAR-8 ovarian
  TGI: > 100 µM
RPMI-8226 leukemia
  TGI: > 100 µM
RXF 393 renal
  TGI: > 100 µM
SF-268 CNS
  TGI: > 100 µM
SF-295 CNS
  TGI: > 100 µM
SF-539 CNS
  TGI: > 100 µM
SK-MEL-2 melanoma
  TGI: > 100 µM
SK-MEL-28 melanoma
  TGI: > 100 µM
SK-MEL-5 melanoma
  TGI: > 100 µM
SK-OV-3 ovarian
  TGI: > 100 µM
SN12C renal
  TGI: > 100 µM
SNB-19 CNS
  TGI: > 100 µM
SNB-75 CNS
  TGI: > 100 µM
SNB-78 CNS
  TGI: > 100 µM
SW-620 colon
  TGI: > 100 µM
TK-10 renal
  TGI: > 100 µM
U251 CNS
  TGI: > 100 µM
UACC-257 melanoma
  TGI: > 100 µM
UACC-62 melanoma
  TGI: > 100 µM
UO-31 renal
  TGI: > 100 µM
XF 498 CNS
  TGI: > 100 µM
